Reference: patent US20260028338A1, “HETEROBIFUNCTIONAL COMPOUNDS AND METHODS OF TREATING DISEASE” (Halda Therapeutics OpCo, Inc., priority 2023, published 2026)

Test system: Su-DHL-4 cell line
Assay: Cellular growth inhibition assay, Su-DHL-4 cells (CellTiter-Glo)
Assay type: cell-based
Conditions: Homo sapiens; Su-DHL-4 cell line (DLBCL), 72 hours, CellTiter-Glo 2.0
Description: Exemplary compounds were tested for ability to inhibit the proliferation of Su-DHL-4 and Farage cells. Su-DHL-4 and Farage cells are commercially available diffuse large B cell lymphoma cell lines (DLBCL).
Su-DHL-4 and Farage cells were purchased from American Type Cell Culture (ATCC Cat #CRL-2957/CRL-2630) and then seeded on poly-D-lysine coated, black clear-bottom 384-well plates at 3000/well in 25 μL Roswell Park Memorial Institute media (RPMI-1640) supplemented with 10% w/w Fetal bovine serum (FBS) and 1% w/w Pen-Strep. Pen-Strep is a commercially available mixture of penicillin G and streptomycin, which is used in mammalian cell culture media to prevent bacterial contamination. Roswell Park Memorial Institute media (RPMI-1640) supplemented with 10% w/w fetal bovine serum (FBS), and 1% w/w Pen-Strep is herein referred to as Treatment Medium. Following seeding of cells in the plates, the plates were spun at 300×g for 30 seconds, then equilibrated to room temperature for 30 minutes, and then deposited in a humidified tissue culture incubator maintained at 37° C. with 5% CO2.
At 24 hours after seeding of the cells, dilutions of test compound were prepared in DMSO and dissolved in Treatment Medium, to achieve a final DMSO concentration of 0.5% w/w, thereby providing the Test Compound Solution. A 25 μL aliquot of the Test Compound Solution was added to cells in the well plates. An equal volume of a solution containing DMSO and Treatment Medium was used as a negative control. Following treatment of cells with Test Compound Solution or said equal volume of a solution containing DMSO and Treatment Medium, the plates were spun at 300×g for 30 seconds, and then left in an incubator for 72 hours.
At the end of the treatment duration, cell viability was quantified with CellTiter-Glo 2.0 reagent (Promega Cat #G9243). For this purpose, plates were equilibrated to room temperature for 30 minutes, and then 25 μL of CellTiter-Glo 2.0 reagent was added to cells in the plate wells. Plates were then agitated on a shaker for two minutes at 500 rpm and subsequently incubated at room temperature for 10 minutes. Following incubation, the plates were spun at 3000×g for 30 seconds, then sealed with an optical adhesive cover, and luminescence readings were measured with an EnVision Plate Reader (Perkin Elmer).
Data was normalized using zero luminescence for baseline. A four-parameter non-linear regression curve fit was applied to dose-response data in GraphPad Prism data analysis software to determine the half-maximal growth inhibitory concentration (GI50) for each test compound.

## CCS(=O)(=O)Nc1ccc(Oc2cccc(OCCOCCOC3CCN(c4ncc(Cl)c(Nc5ccc6c(c5)cc(OCC(=O)NC)c(=O)n6C)n4)CC3)c2)c(-c2cn(C)c(=O)c3[nH]ccc23)c1 [Compound I-1, 2-[[6-[[5-chloro-2-[4-[2-[2-[3-[4-(ethylsulfonylamino)-2-(6-methyl-7-oxo-1H-pyrrolo[2,3-c]pyridin-4-yl)phenoxy]phenoxy]ethoxy]ethoxy]-1-piperidyl]pyrimidin-4-yl]amino]-1-methyl-2-oxo-3-quinolyl]oxy]-N-methyl-acetamide]
  GI50: < 500 nM
